We go through 16 molecules from PubChem BioAssay (NCI).

Holding throughout (assay): growth of human tumour cells (NCI), 48 h
Assay [1] has as its system MOLT-4 leukemia.
In assay [2] the test system is HOP-62 NSCLC.
The subject of assay [3] is SNB-19 CNS.
Assay [4] relates to SR leukemia.
Assay [5] concerns DU-145 prostate.
Assay [6] has as its system SK-MEL-2 melanoma.
The subject of assay [7] is OVCAR-3 ovarian.
For assay [8], the system named is SF-268 CNS.
For assay [9], the system named is 786-0 renal.
Assay [10] has as its system A549 NSCLC.

Values joined by “and” are separate entries in the source; they are usually repeats but may differ in a detail not shown here. Identical values can stand only once.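 Five compound concentrations were applied to cells in 96-well plates for 48 hours; endpoints were derived by simple linear interpolation of the resulting dose-response curve. GI50: concentration for 50% inhibition of growth. TGI denotes the concentration required for complete inhibition of growth.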

`COC(=O)Nc1nc2c(OC)c(OC)c(OC)cc2[nH]1`: the GI50 in assay [1] is 67.2 µM; in assay [2], 33.5 µM; in [3] it was 45.7 µM; in assay [4], 3.39 µM; in assay [5] it was 32 µM; in assay [6] it was 15.1 µM. Also, the GI50 in assay [7] was 15.6 µM; in assay [8], 59.2 µM; in assay [9], 66.4 µM; in assay [10], 14.8 µM. The TGI in assay [1] was over 100 µM; in assay [2], over 100 µM; in assay [3], over 100 µM; in [4], over 75.7 µM; in assay [5], over 100 µM; in assay [6], over 91.6 µM. The TGI in [7] was 49.1 µM; in assay [8] it was over 100 µM; in [9], over 100 µM; in assay [10] it was over 100 µM.
Take `O=C(Cc1ccccc1)Nc1nnc(CCSCCc2nnc(NC(=O)Cc3ccccc3)s2)s1`: the GI50 is 23.8 µM in assay [1]; 3.86 µM in assay [2]; 11.2 µM in assay [3]; 13.9 µM in [4]; 23.8 µM in assay [5]; 16.5 µM in assay [6]. Also, the GI50 is 6.16 µM in assay [7], 12.3 µM in assay [8], 6.11 µM in assay [9] and 0.541 µM in [10]. For the same molecule, the TGI in [1] is over 100 µM; in assay [2], 19.6 µM; in assay [3], 33.3 µM; in [4], 32.6 µM; in assay [5], over 100 µM; in assay [6], over 100 µM. The TGI in assay [7] was 49.2 µM; in assay [8], 62 µM; in assay [9], 54.6 µM; in assay [10], over 100 µM.
Regarding `OC(COc1ccc(Cl)cc1Cl)CN1CCCC1` (centres undefined), the TGI in assay [1], in assay [2], in [3], in assay [4], in assay [5] and in assay [6] was over 100 µM throughout. Moreover, the TGI in assay [7], in assay [8], in assay [9] and in assay [10] was over 100 µM each time.
For `Clc1ccccc1-c1nc2ccccc2[nH]1`, the GI50 in [1], in [2], in assay [3], in assay [4], in [5] and in assay [6] was over 100 µM each time. The GI50 in [7], in assay [8], in assay [9] and in [10] was over 100 µM in each case. In addition, the TGI in [1], in assay [2], in [3], in [4], in assay [5] and in assay [6] was over 100 µM each time. For the same molecule, the TGI in [7], in assay [8], in [9] and in assay [10] was over 100 µM each time.
With `O=C(CCCn1ccnc1[N+](=O)[O-])NCCn1cnc([N+](=O)[O-])c1`, the TGI in [1], in assay [2], in assay [3], in assay [4], in [5] and in assay [6] was over 100 µM each time. In addition, the TGI in [7], in [8], in assay [9] and in [10] was over 100 µM throughout.
With `COc1ccc(S(=O)(=O)O)cc1NS(=O)(=O)c1ccc(C)cc1`, the TGI in assay [1], in [2], in assay [3], in [4], in assay [5] and in [6] was over 100 µM each time. The TGI in assay [7], in assay [8], in assay [9] and in assay [10] was over 100 µM in each case.
Consider `CC(C)(C)c1ccc(C(=O)N/N=C/c2ccc(O)cc2O)cc1`, for which the GI50 in assay [1] was 0.346 µM; in assay [2] it was 0.418 µM; in [3] it was 0.825 µM; in assay [4], 0.317 µM; in [5] it was 0.564 µM; in assay [6], 1.89 µM. Besides, the GI50 in assay [7] is 0.28 µM; in assay [8], 0.358 µM; in [9], 0.53 µM; in assay [10], 0.594 µM. For the same molecule, the TGI in assay [1] was 14.9 µM; in [2] it was 11.1 µM; in [3], 17.9 µM; in assay [4], over 100 µM; in assay [5], 14 µM; in assay [6], 16 µM. Further, the TGI is 2.06 µM in assay [7], 8.19 µM in [8], 3.3 µM in [9] and 35 µM in assay [10].
For `COC(=O)[C@]12CC[C@@H](C)[C@H](C)[C@@H]1C1=CC[C@@H]3[C@@]4(C)C(c5ncon5)=C[C@@](C)(CO)C4=CC[C@@]3(C)[C@]1(C)CC2`, the GI50 in assay [1] was 1.69 µM; in [2], 2.42 µM; in [3] it was 2.84 µM; in assay [4], 1.55 µM; in assay [5], 1.77 µM; in assay [6] it was 2.05 µM. For the same molecule, the GI50 in [7] was 1.79 µM; in [8] it was 2.34 µM; in assay [9], 2.91 µM; in assay [10], 4.48 µM. The TGI in assay [1] is 3.92 µM; in assay [2], 5.08 µM; in [3], 11.6 µM; in assay [4], 4.21 µM; in assay [5], 3.26 µM; in [6] it was 4.22 µM. Besides, the TGI in assay [7] came to 3.25 µM; in assay [8], 6.89 µM; in [9] it was 8.58 µM; in assay [10] it was 15.5 µM.
`Cc1cc2nc3ccc(N=Nc4ccc(N(C)C)cc4)cc3n(-c3ccccc3)c-2cc1=N`: the GI50 in [1] was 0.0146 µM; in [2], 0.0406 µM; in [3] it was 0.0212 µM and 0.0731 µM; in assay [4], 0.0208 µM; in assay [5], 0.0208 µM; in [6] it was 0.058 µM. Moreover, the GI50 is 0.0121 µM in [7], 0.0332 µM in assay [8], 0.0778 µM in assay [9] and 0.00894 µM in assay [10]. The TGI in [1] was 1.92 µM; in [2], 1.75 µM; in assay [3], 1.08 µM and 1.61 µM; in [4], 0.394 µM; in assay [5] it was 0.123 µM; in assay [6] it was 0.317 µM. Further, the TGI worked out at 0.039 µM in assay [7], 0.26 µM in assay [8], 0.505 µM in assay [9] and 0.264 µM in assay [10].
With `O=C1OCC2=C1C(c1cccc(F)c1)c1cc3c(cc1N2CCO)OCCO3` (centres undefined), the GI50 is 0.301 µM in assay [1]; 0.31 µM in assay [2]; 0.275 µM in assay [3]; 0.078 µM in [4]; 0.22 µM in [5]; 0.276 µM in assay [6]. Besides, the GI50 in [7] is 0.142 µM; in [8], 0.381 µM; in assay [9], 0.208 µM; in [10] it was 0.32 µM. Besides, the TGI in assay [1], in assay [2], in assay [3], in assay [4], in [5] and in assay [6] was over 50 µM each time. For the same molecule, the TGI in [8], in assay [9] and in [10] was over 50 µM in each case.
As for `O=C1C2C(C(=O)[N]1[Hg][c]1ccccc1)C1(Cl)C(Cl)=C(Cl)C2(Cl)C1(Cl)Cl` (centres undefined), the GI50 in [1] was 1.88 µM; in assay [2] it was 6.21 µM; in assay [3], 1.54 µM; in [4] it was 0.41 µM; in [5] it was 1.66 µM; in assay [6], 1.49 µM. Besides, the GI50 in [7] was 0.229 µM; in [8], 1.64 µM; in assay [9], 1.85 µM; in assay [10], 9.84 µM. The TGI in assay [1] worked out at 8.76 µM; in assay [2], 19.2 µM; in assay [3], 2.99 µM; in [4], 3.46 µM; in assay [5], 3.29 µM; in assay [6] it was 3.15 µM. For the same molecule, the TGI in assay [7] was determined as 0.467 µM; in assay [8], 3.71 µM; in assay [9], 3.48 µM; in [10], 25 µM.
For the molecule `Nc1c(C(=O)Nc2cccc3ccccc23)sc2nc3c(cc12)CCCC3`, the GI50 in assay [1] was 0.637 µM; in assay [2] it was 2.16 µM; in assay [3], 4.12 µM; in assay [4], 0.267 µM; in [5], 2.62 µM; in assay [6], 1.04 µM. Besides, the GI50 is 0.577 µM in assay [7], 3.74 µM in [8], 1.11 µM in assay [9] and 3.33 µM in assay [10]. Moreover, the TGI was over 100 µM in assay [1]; over 100 µM in assay [2]; over 100 µM in [3]; 6.38 µM in assay [4]; over 100 µM in [5]; over 100 µM in [6]. In addition, the TGI in assay [7], in assay [8], in assay [9] and in assay [10] was over 100 µM in each case.
On to `Cc1sc2nc(-c3ccccn3)c(/C=N/N=C(N)N)n2c1C`, for which the GI50 in [1] was 10.2 µM; in assay [2] it was 8.06 µM; in [3], 7.52 µM; in [4] it was over 100 µM; in assay [5], 4.88 µM; in [6] it was 7.99 µM. Besides, the GI50 in assay [7] was 8.03 µM; in assay [8], 8.15 µM; in assay [9], 4.84 µM; in [10] it was 12.6 µM. For the same molecule, the TGI in assay [1] was over 27.5 µM; in [2], 16.9 µM; in [3] it was 19.5 µM; in [4], over 100 µM; in assay [5], 12.6 µM; in assay [6], 21.4 µM. Further, the TGI in assay [7] was 15.6 µM; in [8], 29.8 µM; in [9], 12.6 µM; in [10] it was 45 µM.
As to `O=C(Cc1ccc(/C=C/C(=O)c2ncc[nH]2)cc1)Nc1ccc(Br)cc1`, the GI50 in assay [1] is 4.02 µM; in assay [2], 2.49 µM; in assay [3], 2.54 µM; in assay [4], 0.608 µM; in [5], 1.1 µM; in [6], over 16.7 µM. Further, the GI50 was 0.85 µM in assay [7], 1.83 µM in assay [8], 0.946 µM in [9] and 6.06 µM in assay [10]. For the same molecule, the TGI is over 16.7 µM in [1]; 5.73 µM in [2]; 7.99 µM in assay [3]; 12.9 µM in assay [4]; 4.89 µM in [5]; over 16.7 µM in [6]. Besides, the TGI is 3.88 µM in [7], over 16.7 µM in [8], 3.13 µM in assay [9] and over 16.7 µM in assay [10].
With `N#Cc1cc2cc3c4c(c2oc1=O)CCCN4CCC3`, the TGI in [1], in assay [2], in [3], in assay [4], in [5] and in [6] was over 100 µM throughout. Moreover, the TGI in [7], in assay [8], in [9] and in assay [10] was over 100 µM each time.
With `O=S(=O)(NC(=S)Nc1ccccc1)c1ccc(N2N=C3c4ccccc4CC3C2c2ccc(Cl)cc2)cc1` (centres undefined), the GI50 is 15.9 µM in assay [1]; 41.3 µM in assay [2]; 21.8 µM in [3]; 14.7 µM in assay [4]; 24.9 µM in [5]; 23.4 µM in [6]. Besides, the GI50 was 46.3 µM in [7], 20.7 µM in [8], 32.4 µM in assay [9] and 20.9 µM in [10]. Also, the TGI in [1] was 39.3 µM; in assay [2], over 100 µM; in assay [3], 46.4 µM; in [4], 36.6 µM; in assay [5], 51.4 µM; in assay [6] it was 47.9 µM. The TGI in assay [7] was over 100 µM; in assay [8], 51.1 µM; in assay [9], over 100 µM; in assay [10], 51.7 µM.
